“And” between values parts separate entries of the source, which are not always exact repeats. Equal entries are not always repeated. “Also recorded” adds a separate entry of the source. Where two headings read alike, the source gives them in different places.

This is an account of results in patent US6602487B1, “Methods and tests for producing and for inhibiting coronary artery vasospasms” (Dimera Incorporated, priority 1997, dated 2003).

Test [1] concerns coronary arteries. The settings on record: for coronary vasospasm on IC injection (no mechanical injury): serotonin 6.7 or 200 μmol/liter alone, U46619 6.7 to 2,000 nmol/liter alone, AII up to 200 nmol/liter, combination 6.7 μmol/liter serotonin and 67 nmol/liter U46619, triple combination with ET1; for EC50: read-out: estimated ET1 EC50, responsive ovx monkeys.
The test system of test [2] is coronary arteries. Briefly: Mechanical injury coronary vasospasm protocol (Protocol 2). Type of test: in vivo, rhesus monkeys (Macaca mulatta). The settings on record: for Spasms/N: number of animals with vasospasm / number of animals; for ED50 (-log mol/liter): syringe concentration of the named vasoconstrictor causing 50% reduction of diameter from control, combined stimuli with 100 μmol/liter serotonin. The text has this:
A separate mechanical injury, Protocol 2, was used in three additional monkeys (one male, two ovx). The injury step of Protocol 2, was deliberate mechanical stretching of the LAD or left main coronary artery with a 5F catheter.
In Protocol 2, steps 1-5 were the same as in Protocol 1. The remaining steps were as follows:
7. IC injection of angiotensin II (sequential doses to 10 μmol/liter);
8. Injury by stretching the coronary artery with a 5F catheter;
9. IC injection of serotonin (sequential doses to 1 mmol/liter);
10. IC injection 15 minutes later with 1 or 10 μmol/liter nitrendipine or Ro 40-5967 (mibefradil);
11. IC injection of […] (sequential doses to 10 μmol/liter); and
12. IC injection 15 minutes later with 1 or 10 μmol/liter nitrendipine or Ro 40-5967.
Putative coronary vasospasm stimuli were judged primarily by actions on large coronary artery diameters, analyzed as diameter of the most proximal focus of vasospasm at end-diastole from video-taped images recorded at 30 frames/s. We used the image analysis program Image Pro to measure the diameters from single frames acquired with an Imagraph frame grabber in a Pentium computer. We used the 3F catheter tip radio-opaque marker ring (1.0 mm) for calibration and determined minimal and maximal diameters just distal to the constriction. All responses to interventions were also X-ray imaged immediately (15 to 30 s after injection) and at exactly 3 minutes (and 15 minutes if there was vasospasm) after injection.

Test [3] has as its system coronary artery vascular muscle cells (VMC). Description: Subcellular Ca2+ and PKC localization and contraction of coronary VMC stimulated with serotonin plus U46619. Type of test: cell-based, rhesus monkeys. The text has this:
Single VMCs from the left anterior descending, circumflex, and right coronary arteries of adult rhesus monkeys were isolated and studied both as freshly dispersed and as primary cultures. The short-term primary cultured cells (never passaged) maintain the characteristics of the source tissue for 2 3 weeks, including contraction, relaxation, receptors, and membrane electrical properties. VMCs were dissociated with collagenase and protease enzymes in a potassium glutamate solution (KG) that prevent loading with Na^+, Ca^2+, or Cl^− and results in a high proportion of viable, contracting cells (Self, D. A., et al., J. Vasc. Res. 31:359-366 (1994); Rusch., N. J., et al., Physiology and Pathophysiology of the Heart, 999-1010 (1995)). The cells prepared for culture were seeded at low density in cardiovascular culture solution for mammals, fifth generation (CV5M) on glass coverslips to facilitate selection of individual cells. VMC were used for experiments 7-14 days after attaching to coverslips.
Freshly dispersed or primary cultured VMCs on glass coverslips were placed in a chamber of laminar flow design and observed with a Zeiss Plan Neofluar 25×/0.80 water immersion objective. Ionic solution for mammals version 2 (ISM2) was continuously pumped through the chamber (at 1 ml/minute) to provide continuous equilibration and washout of drugs. After a 15 minutes equilibration period, VMC were loaded for 15 minutes at room temperature with 3 μM fluo 3 (Molecular Probes, Inc.) for sensing Ca^2− and for 10 minutes with […] hypericin (LC Laboratories) for reporting PKC. Individual VMC were stimulated by adding 20 μl of 10 μM serotonin plus 100 nM U46619 over the individual cell. After 15 seconds under no-flow conditions, continuous flow of ISM2 was reinstated and a chamber volume of approximately 300 μl was maintained. Fluorescent images were taken at 1, 2, 5, 10, 15, 20 and 30 minutes after stimulation for Ca^2+ and at 3, 4, 9, 16, 21 and 31 minutes for PKC to evaluate subcellular distribution of these signals, and to determine VMC contraction.
ISM2 contains (in mM): 100 NaCl, 4 NaHCO3, 0.5 NaH2PO4, 4.7 KCl, 1.8 CaCl2, 0.41 […], 50 HEPES (pH 7.37), and 5.5 dextrose, KG solution consists of (in mM); 140 K-glutamate, 16 NaHCO3, 0.5 NaH2PO4, 30 HEPES, and 16.5 dextrose at pH 7.3. CVSM consists of. 4.0 mM L-glutamine, 10 μg/ml ciprofloxacin (Miles Pentex/Bayer Corporation), 50 mM HEPES (pH 7.3), and 16 mM NaHCO3 dissolved in 85% MEM-Earle's'salts and 15% horse serum. Phenol red, known to have estrogenic activity, was omitted from all solutions.
As discussed above, the monkeys were implanted with subdermal sylastic tubing containing estrogen (E) progesterone (P) or MPA. The first step in each of the three groups was to implant sylastic tubing containing E. Two weeks later, either P or MPA were additionally implanted and maintained for another 4 weeks (6 weeks total). In the withdrawal (W) group, the E tube was withdrawn, and no tubes were implanted for the last 4 weeks.

Test [4] concerns coronary arteries. Briefly: Drug-induced (S+U) coronary vasospasm in ovariectomized monkeys with E2 plus P or MPA implants. Type of test: in vivo, rhesus monkeys (Macaca mulatta). The procedure:
Twelve rhesus monkeys (Macaca mulatta), aged 8 to 16 years and with weights of 5-7 kg, were ovariectomized at least 3 months prior to beginning of the study and selected randomly for one of two treatments. After documenting the lack of cardiovascular disease or previous exposure to atherogenic diet and after a normal physical examination (including blood chemistry), monkeys received subdermal sylastic implants containing 200 mg of E2. Two weeks later, sylastic implants containing either 400 mg of P or 400 mg of MPA were additionally implanted. All steroids were purchased from Steraloids (Wilton, N.H.). Both estrogen and progestin implants, providing sustained release steroids, remained in place through the catheterization study 6 weeks after beginning the study. Venous blood sample (5 ml) were collected just prior to beginning the study at weekly intervals for measurements of serum levels of E2, P, and MPA. Target levels of 80-160 pg/ml for E2, 4000-8000 pg/ml for P, and 400-800 pg/ml for MPA were based on levels that are effective by reproductive system indices in women and monkeys. Levels were measured in blood serum at catheterization by specific radio-immunoassays.
Angiography was carried out under isoflurane (0.75-1.25%) general anesthesia with 70% O2 and 30% N2O, and body temperature supported with a heating pad. After ketamine sedation (10 mg/kg) and endotracheal tube placement, both femoral arteries were cannulated for simultaneous measurement of systemic blood pressure and coronary catheterization. Intravenous anticoagulation with 1000 units of heparin and fluid replacement with 75-150 ml of lactated Ringer's solution, and if needed 10-50 ml of dextran, to reach a minimum control diastolic blood pressure of 60 mm Hg.
Coronary arteries (left anterior descending or left circumflex) of the monkeys were catheterized and agents injected as described above in Example 1.
Statistical analysis was carried out by Student's t-test (non-paired) or Chi-square, with the p<0.05 level accepted as significant.
All monkeys were treated with estradiol 17β via sylastic implants for the entire treatment period. P or MPA was added during the last 2 weeks as a second sylastic implant, to simulate the luteal phase (P) or hormone replacement therapy (MPA). All steroid implants were left in place, including during angiography. Steroid measurements were made by RIA on serum samples taken just before angiography. Indicates significant differences between P and MPA at p 0.05 (N=6 for each group).

[5] abbreviates: angiographic example, one MPA monkey.
Where [6] appears, read: minimum, 5-20 minutes after IC S + U.

In the case of “Angiotensin II: vasoconstrictor angiotensin-II (DRVYIHPF; Angiotensin-2; UniProt P01019 25-32, looked up)”, in the test with coronary arteries [1] (Angiotensin II up to 200 nmol/liter IC), the systemic blood pressure entry is “did increase systemic blood pressure”. Besides, the “coronary vasospasm on IC injection (no mechanical injury)” value with coronary arteries [1] is listed as “did not cause vasospasm”. Further, the “EC50 (-log mol/liter)” value in the test with coronary arteries [2] (Protocol 2, estimated actual coronary artery blood concentration based on 15-fold dilution) is 6.8 -log mol/liter. In addition, in the test on coronary arteries [2] (Protocol 2), the Spasms/N is 0/3 and the “ED50 (-log mol/liter)” value is 5.5 -log mol/liter.

Turning to `CC(=O)O[C@]1(C(C)=O)CC[C@H]2[C@@H]3C[C@H](C)C4=CC(=O)CC[C@]4(C)[C@H]3CC[C@@]21C` [MPA, medroxyprogesterone acetate], in test [3] (VMC from treated monkeys, 10 μM serotonin plus 100 nM U46619, FIG. 3), the “whole cell Ca2+ (fluo 3) fluorescence after stimulation” value is “significantly increased over control averaged over the whole cell at 1 minute and every subsequent time point”. The “peripheral-to-central Ca2+ ratio after stimulation” value in test [3] (VMC from treated monkeys, 10 μM serotonin plus 100 nM U46619, FIG. 4) is “significantly decreased peripheral-to-central Ca^2+ ratio at 10 minutes and all subsequent times”. Besides, in test [3] (VMC from treated monkeys, 10 μM serotonin plus 100 nM U46619, FIG. 5), the “PKC signal after stimulation” value was “significantly above the 0-min control at 3 minutes and all subsequent time points”. Also, the “peripheral-to-central PKC ratio after stimulation” value in test [3] (VMC from treated monkeys, 10 μM serotonin plus 100 nM U46619, FIG. 6) is “decreased significantly”. Besides, in test [3] (VMC from treated monkeys, 10 μM serotonin plus 100 nM U46619, FIG. 7), the “VMC contractions (cell width) after stimulation” value is “significantly different from 0-min controls at 3 minutes and all subsequent times”. Moreover, in test [3] (based on comparisons of contractions, protocol limit 30 minutes), the “duration of activation by serotonin and U46619” value was more than 30 min. In addition, the “diameter in dilator response to low dose ACh” value in the test with coronary arteries [4] (0.18 μg ACh IC) is given as 1.21±0.19 mm. In the test on coronary arteries [4] (E2+MPA treated monkeys), the “number of S+U challenges responded to with vasospasm (mean)” value is 2.7±0.7 and the “number of S+U challenges responded to with vasospasm (range)” value is given as 1-5. Further, in the test with coronary arteries [4] (S+U IC challenges, E2 implant plus P or MPA implant, N=6 per group), the “Vasospasms (incidence)” value was 6 of 6 and 6/6*. Besides, the “reduction of minimum (φ) from controls after S+U” value in the test with coronary arteries [4] (S+U stimulation) was 87%. Also, in the test on coronary arteries [4] (setting [5]), the “constriction after IC S+U” value was 92% and the “time constriction was sustained” value came to 15 min. Further, the blood pressure nadir with coronary arteries [4] (angiographic example, one MPA monkey after S+U) is 38/20. Further, in the test on coronary arteries [4] (before S + U), the “Control DBP in mm Hg” value is given as 61 ± 5 mm Hg and the “Control Heart rate in bpm” value is recorded as 134 ± 26 bpm. For the same compound, in the test with coronary arteries [4] (minimum diameter 3 to 5 minutes after IC S + U), the “S + U (φ) minimum” value is 0.15±0.04 mm. Further, in the test on coronary arteries [4] (setting [6]), the “S + U stim DBP in min Hg” value is listed as 26 ± 8 min Hg, the “S + U stim SBP in mm Hg” value turned out to be 45 ± 11 mm Hg and the “S + U stim heart rate in bpm” value is 69 ± 24 bpm. The “Control (φ) in mm” value with coronary arteries [4] (proximal LAD or left circumflex diameter under control conditions, E2+P or E2+MPA group) was 1.15±0.10 mm.

With `CC[C@H](C)[C@H](NC(=O)[C@H](CC(=O)O)NC(=O)[C@H](CC(C)C)NC(=O)[C@H](Cc1c[nH]cn1)NC(=O)[C@@H]1CSSC[C@H](N)C(=O)N[C@@H](CO)C(=O)N[C@H]2CSSC[C@H](NC(=O)[C@H](CCC(=O)O)NC(=O)[C@H](CCCCN)NC(=O)[C@H](CC(=O)O)NC(=O)[C@H](CCSC)NC(=O)[C@H](CC(C)C)NC(=O)[C@H](CO)NC(=O)[C@H](CO)NC2=O)C(=O)N[C@@H](C(C)C)C(=O)N[C@@H](Cc2ccc(O)cc2)C(=O)N[C@@H](Cc2ccccc2)C(=O)N1)C(=O)N[C@H](C(=O)N[C@@H](Cc1c[nH]c2ccccc12)C(=O)O)[C@@H](C)CC` [Endothelin 1], the EC50 (commonly the concentration that produces a half-maximal response) in the test on coronary arteries [1] (with 6.7 μmol/liter serotonin) was 67 pM; in the test on coronary arteries [1] (without serotonin), 200 pM. Also, the Spasms/N in the test on coronary arteries [2] (Protocol 2) is on record as 0/3. For the same compound, the “ED50 (-log mol/liter)” value in the test with coronary arteries [2] (Protocol 2) is 8.5 -log mol/liter.

In the case of `CCCCC[C@H](O)/C=C/[C@@H]1[C@@H](C/C=C\CCCC(=O)O)[C@H]2CO[C@@H]1C2` [U46619], the “EC50 (-log mol/liter)” value with coronary arteries [1] (Protocol 1, estimated actual coronary artery blood concentration based on 15-fold dilution) is reported as 6.8 -log mol/liter. For the same compound, the Spasms/N in the test on coronary arteries [1] (Protocol 1, number of animals with vasospasm / number of animals) is recorded as 0/8. The “ED50 (-log mol/liter)” value in the test with coronary arteries [1] (Protocol 1, syringe concentration of the named vasoconstrictor causing 50% reduction of diameter from control, combined stimuli with 100 μmol/liter serotonin) is reported as 5.5 -log mol/liter. Further, the “vasoactivity / constriction of arteries on IC injection of single agent” value in the test with coronary arteries [1] (serotonin 67 nmol/liter to 667 μmol/liter, U46619 6.7 to 2,000 nmol/liter) was “caused constriction of arteries in all 10 monkeys”. The “coronary vasospasm on IC injection (no mechanical injury)” value in the test on coronary arteries [1] was “vasospasm could not be found”. Moreover, in the test on coronary arteries [2] (serotonin 67 μmol/liter IC, U46619 67 nmol/liter or 1 nmol/liter, ET1 ≦10 nmol/liter, AII ≦10 μmol/liter), the “coronary vasospasm with mechanical injury (5F catheter stretch)” value is “caused another vasospasm; also recorded: Vasospasm was stimulated”.

With `CC(=O)OCC[N+](C)(C)C` [ACh, acetylcholine], the time to vasodilation in the test on coronary arteries [1] (67 nmol/liter ACh IC, all monkeys) was not above 15 s.
